# Where “and” joins values, the source holds several entries; their conditions need not be identical. Identical values can stand only once. Like-named read-outs stand apart in the source and are kept apart here.
# How the values were obtained:
# OATP2B1 = target: T1, OATP2B1 (Homo sapiens, UniProt O94956); assay: [3H]E1S transport inhibition assay in OATP2B1-HEK293 cells; assay type: cell-based; settings: 200 nM [3H]E1S, 10 min; two independent experiments
# T1 construct: stably transfected with the full open reading frames of human NTCP, ASBT, SOAT, OATP1B1, OATP1B3, OATP2B1, and murine Asbt (mAsbt); expressed in transfected cells; host or cells: HEK293, stably transfected (OATP2B1-HEK), tetracycline-induced
# T1 sequence (O94956 1-709): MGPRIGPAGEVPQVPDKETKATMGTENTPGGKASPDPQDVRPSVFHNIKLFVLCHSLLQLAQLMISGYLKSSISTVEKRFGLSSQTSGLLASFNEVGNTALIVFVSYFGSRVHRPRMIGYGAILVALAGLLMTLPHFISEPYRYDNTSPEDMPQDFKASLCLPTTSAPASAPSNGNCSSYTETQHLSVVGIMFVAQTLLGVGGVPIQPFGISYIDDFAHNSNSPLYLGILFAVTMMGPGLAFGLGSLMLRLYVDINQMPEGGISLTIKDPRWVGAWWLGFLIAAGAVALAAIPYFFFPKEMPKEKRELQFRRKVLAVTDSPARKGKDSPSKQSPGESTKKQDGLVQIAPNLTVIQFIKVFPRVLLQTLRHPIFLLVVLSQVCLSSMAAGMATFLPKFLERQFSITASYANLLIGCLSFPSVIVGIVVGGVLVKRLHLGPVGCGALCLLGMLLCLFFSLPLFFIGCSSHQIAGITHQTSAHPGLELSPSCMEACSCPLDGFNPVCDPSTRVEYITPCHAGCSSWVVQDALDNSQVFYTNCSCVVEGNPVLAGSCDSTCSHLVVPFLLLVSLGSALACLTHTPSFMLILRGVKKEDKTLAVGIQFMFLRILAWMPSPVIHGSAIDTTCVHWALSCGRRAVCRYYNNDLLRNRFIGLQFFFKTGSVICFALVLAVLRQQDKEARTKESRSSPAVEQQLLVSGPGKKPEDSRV
# Excerpt: (§1) Human embryonic kidney HEK293 cells, stably transfected with the full open reading frames of human NTCP, ASBT, SOAT, OATP1B1, OATP1B3, OATP2B1, and murine Asbt (mAsbt) were used as reported ([18], [20], [21], [22], [23]). The NTCP, ASBT, and mAsbt constructs were C-terminally tagged with the FLAG epitope, and the SOAT construct was C-terminally tagged with green fluorescent protein. Non-transfected Flp-In HEK293 cells (Thermo Fisher Scientific) served as the control. All cell lines were maintained at 37°C, 5% CO2 and 95% humidity in DMEM/F-12 medium (Thermo Fisher Scientific) supplemented with 10% fetal calf serum (Sigma-Aldrich), 4 mM L-glutamine (PAA) and penicillin/streptomycin (PAA). Expression of the respective carrier protein was induced by tetracycline treatment at 1 μg/ml (Carl Roth GmbH + Co. KG).
# Cells were seeded onto poly-L-lysine-coated 96-well plates, induced with 1 μg/ml tetracycline, and grown to confluence over 72 h at 37°C. Then, cells were washed with tempered (37°C) phosphate-buffered saline (PBS, containing 137.0 mM NaCl, 2.7 mM KCl, 1.5 mM KH2PO4, and 7.3 mM Na2HPO4, at pH 7.4) and preincubated with 80 μl sodium transport buffer (STB, containing 142.9 mM NaCl, 4.7 mM KCl, 1.2 mM MgSO4, 1.2 mM KH2PO4, 1.8 mM CaCl2, and 20.0 mM HEPES, at pH 7.4) for 5 min at 37°C. For inhibition studies, the medium was replaced by 80 μl STB containing the respective inhibitor or solvent alone and cells were further incubated for 5 min at 37°C. Transport experiments were started by adding 20 μl of a 5-fold concentrated substrate solution (solved in STB). For transport experiments under sodium-free conditions the same buffer composition was used as for STB, but sodium chloride was substituted with equimolar concentrations of choline chloride as previously reported ([20], [24]). Transport experiments were stopped by washing twice with ice-cold PBS and the plates were kept cool on ice until adding the lysis buffer [1% sodium dodecyl sulfate (SDS) and 1 N NaOH]. Then, the cell-associated radioactivity of the respective tritium-labeled substrate or ligand was quantified by liquid scintillation counting using MicroScint-20 scintillation cocktail (Revvity) in a Packard Microplate Scintillation Counter TopCount NXT (Packard Instrument Company). For IC50 transport inhibition measurements, the mean uptake values measured in non-carrier-expressing HEK293 control cells were defined as 0% uptake control and were subtracted from all other values. Values from cells without inhibitor and solvent alone were set to 100%. Finally, all net transport data were expressed as uptake or binding as % of control. All transport or inhibition graphs were generated with GraphPad Prism 6 (GraphPad). Determination of half maximal inhibitory concentrations (IC50) was done by nonlinear regression analysis using the equation log (inhibitor) versus response—variable slope settings. All data points of the IC50 curves represent means ± SD of quadruplicate determinations. For Km measurements, BS uptake in the absence of sodium was regarded as carrier-independent unspecific uptake and was subtracted from the transport rates in the presence of sodium to obtain carrier-specific uptake rates (indicated as dashed lines). From the specific uptake rates, Michaelis Menten Km values were calculated by non-linear regression analysis.
# NTCP [1] = target: T2, NTCP (Homo sapiens, UniProt Q14973); assay: [3H]preS1 peptide binding to NTCP-HEK293 cells; settings: 5 nM [3H]preS1; two independent experiments
# T2 construct: stably transfected with the full open reading frames of human NTCP, ASBT, SOAT, OATP1B1, OATP1B3, OATP2B1, and murine Asbt (mAsbt); expressed in transfected cells; host or cells: HEK293 (Flp-In), stably transfected, tetracycline-induced
# T2 sequence (Q14973 1-349): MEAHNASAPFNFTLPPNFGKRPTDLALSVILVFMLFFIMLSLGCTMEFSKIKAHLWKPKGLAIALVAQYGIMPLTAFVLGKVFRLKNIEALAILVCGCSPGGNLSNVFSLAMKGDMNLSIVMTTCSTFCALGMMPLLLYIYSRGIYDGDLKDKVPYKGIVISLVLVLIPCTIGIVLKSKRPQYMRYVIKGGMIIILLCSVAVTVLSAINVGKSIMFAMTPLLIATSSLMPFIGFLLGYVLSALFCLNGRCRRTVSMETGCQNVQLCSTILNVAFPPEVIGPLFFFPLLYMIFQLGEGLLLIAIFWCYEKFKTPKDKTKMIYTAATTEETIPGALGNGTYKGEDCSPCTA
# Excerpt: as §1, with “Expression of the respective carrier protein was induced by tetracycline treatment at 1 μg/ml (Carl Roth GmbH + Co. KG).” left out
# (§2) Cells were seeded onto poly-L-lysine-coated 96-well plates, induced with 1 μg/ml tetracycline, and grown to confluence over 72 h at 37°C. […] Then, the cell-associated radioactivity of the respective tritium-labeled substrate or ligand was quantified by liquid scintillation counting using MicroScint-20 scintillation cocktail (Revvity) in a Packard Microplate Scintillation Counter TopCount NXT (Packard Instrument Company). […] Finally, all net transport data were expressed as uptake or binding as % of control. […] From the specific uptake rates, Michaelis Menten Km values were calculated by non-linear regression analysis.
# NTCP [2] = target: T2, NTCP; assay: [3H]rosuvastatin transport inhibition assay in NTCP-HEK293 cells; assay type: cell-based; settings: 1 μM [3H]rosuvastatin, 10 min; two independent experiments; read-out: IC50 NTCP [3H]rosuvastatin uptake
# Excerpt: as §1, with “Expression of the respective carrier protein was induced by tetracycline treatment at 1 μg/ml (Carl Roth GmbH + Co. KG).” left out
# as §2
# ASBT = settings: cited from earlier work; for IC50: read-out: IC50 ASBT inhibition
Structure (SMILES),IC50 (OATP2B1),IC50 (NTCP [1]),IC50 (NTCP [2]),IC50 (ASBT; ref PMDA Goofice Report on the Deliberation Results),"IC50 ratio for ASBT versus NTCP inhibition (ASBT; reported by the PMDA, ref PMDA)","IC50 (ASBT; ASBT expressed in baby hamster kidney H-14 cell line, ref FDA NDA 214662 Livmarli)","IC50 (ASBT; ASBT-expressing HEK293 cells, ref EMA EPAR Risk management plan for odevixibat)"
CCCC[C@]1(CC)CS(=O)(=O)c2cc(CNC(CC(=O)O)CC(=O)O)c(OC)cc2[C@@H](c2ccccc2)N1 [linerixibat],> 10 µM and 26.1 µM and 22.5 µM,,,,,,
CCCCC1(CCCC)CN(c2ccccc2)c2cc(SC)c(OCC(=O)N[C@@H](C(=O)N[C@@H](CC)C(=O)O)c3ccc(O)cc3)cc2S(=O)(=O)N1 [odevixibat],5.1 µM and 4 µM,144 µM and 15.9 µM,6.6 µM and 5.4 µM,,,,0.00013 µM

# Further lines, with some results ahead:
IC50 (OATP2B1),IC50 (NTCP [1]),IC50 (NTCP [2]),Structure (SMILES),IC50 (ASBT; ref PMDA Goofice Report on the Deliberation Results),"IC50 ratio for ASBT versus NTCP inhibition (ASBT; reported by the PMDA, ref PMDA)","IC50 (ASBT; ASBT expressed in baby hamster kidney H-14 cell line, ref FDA NDA 214662 Livmarli)","IC50 (ASBT; ASBT-expressing HEK293 cells, ref EMA EPAR Risk management plan for odevixibat)"
> 10 µM and 40.3 µM and 36.5 µM,,,CCCCC1(CCCC)CS(=O)(=O)c2ccc(N(C)C)cc2[C@@H](c2ccc(OCCCC[N+]34CCN(CC3)CC4)cc2)[C@H]1O [SC-435],,,,
3.9 µM and 3.6 µM,147 µM and 36 µM,19.2 µM and 11.9 µM,CCCCC1(CCCC)CN(c2ccccc2)c2cc(SC)c(OCC(=O)N[C@@H](C(=O)NCC(=O)O)c3ccccc3)cc2S(=O)(=O)C1 [elobixibat],0.00053 µM,0.0022,,
7.5 µM and 6 µM,,,CCCCC1(CCCC)CS(=O)(=O)c2ccc(N(C)C)cc2[C@@H](c2ccc(OCc3ccc(C[N+]45CCN(CC4)CC5)cc3)cc2)[C@H]1O [maralixibat],,,0.00028 µM,

# — article PMC12596218 (Journal of Lipid Research, 2025)
